The results in this text go back to patent US10730874B2 (Shire Human Genetic Therapies, Inc., priority 2018, dated 2020).

The structures appear in SMILES notation.

As a reminder, the EC50 is the concentration that produces a half-maximal response.

For one assay, the target named is human activated kallikrein enzyme (plasma kallikrein) (Homo sapiens (Human), UniProt P03952). Kind of assay: Inhibition of human activated plasma kallikrein, fluorogenic peptide substrate assay, 500 pM enzyme format. The conditions noted are these: 500 pM activated kallikrein enzyme, 300 uM Pro-Phe-Arg-7-amido-4-methylcoumarin substrate, 30 min preincubation, 10 min at RT; read-out: Primary Dose Response Assay: Average EC50. Type of assay: biochemical. The essentials: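 Buffer 20 mM Tris pH 7.5, EDTA, NaCl, PEG-400, Triton X-100; 300 uM Pro-Phe-Arg-AMC; enzyme–inhibitor preincubation 30 min RT. Format one: 500 pM kallikrein, 10 min RT reaction; format two: 5 pM kallikrein, 18 h RT reaction. Fluorescence read at 460 nm (380 nm excitation).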
Chain of human activated kallikrein enzyme (plasma kallikrein) (P03952 391-638): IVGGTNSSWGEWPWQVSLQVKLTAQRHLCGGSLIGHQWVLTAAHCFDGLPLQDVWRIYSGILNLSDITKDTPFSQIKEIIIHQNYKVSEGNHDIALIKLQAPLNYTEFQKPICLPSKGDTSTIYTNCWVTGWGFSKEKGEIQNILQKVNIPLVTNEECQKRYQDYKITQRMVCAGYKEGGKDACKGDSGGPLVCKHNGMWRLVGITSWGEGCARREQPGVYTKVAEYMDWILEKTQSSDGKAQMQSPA
Chain of human activated kallikrein enzyme (plasma kallikrein) (P03952 20-390 partner): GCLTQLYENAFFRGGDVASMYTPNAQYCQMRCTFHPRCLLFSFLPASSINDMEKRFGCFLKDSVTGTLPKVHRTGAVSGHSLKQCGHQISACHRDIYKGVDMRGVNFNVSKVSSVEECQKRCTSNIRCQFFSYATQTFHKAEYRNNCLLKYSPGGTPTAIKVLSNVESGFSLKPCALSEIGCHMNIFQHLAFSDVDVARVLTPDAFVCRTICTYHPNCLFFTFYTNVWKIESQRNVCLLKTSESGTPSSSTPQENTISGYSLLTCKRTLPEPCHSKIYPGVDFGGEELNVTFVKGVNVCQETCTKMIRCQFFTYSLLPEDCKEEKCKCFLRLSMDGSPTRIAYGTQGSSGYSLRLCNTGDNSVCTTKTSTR
As to `O=C(NCc1ncn2ccc(Cl)c(F)c12)c1cn(Cc2cn3cc(C4CC4)cc(CNCC(O)C(F)(F)F)c3n2)nn1` (centres unmarked) [Example I-300, N-((7-chloro-8-fluoroimidazo[1,5-a]pyridin-1-yl)methyl)-1-((6-cyclopropyl-8-(((3,3,3-trifluoro-2-hydroxypropyl)amino)methyl)imidazo[1,2-a]pyridin-2-yl)methyl)-1H-1,2,3-triazole-4-carboxamide], the concentration for a half-maximal effect (EC50) was less than 1 nM. On to `O=C(NCc1ncn2ccc(Cl)c(F)c12)c1cn(Cc2cn3cc(C4CC4)cc(N4CCCC4=O)c3n2)nn1` [Example I-203, N-((7-chloro-8-fluoroimidazo[1,5-a]pyridin-1-yl)methyl)-1-((6-cyclopropyl-8-(2-oxopyrrolidin-1-yl)imidazo[1,2-a]pyridin-2-yl)methyl)-1H-1,2,3-triazole-4-carboxamide], for which the EC50 is less than 1 nM. Regarding `O=C(NCc1ncn2ccc(Cl)cc12)c1cnn(Cc2nc3ccc(C4CC4)cn3n2)c1` [Example I-6, N-((7-chloroimidazo[1,5-a]pyridin-1-yl)methyl)-1-((6-cyclopropyl-[1,2,4]triazolo[1,5-a]pyridin-2-yl)methyl)-1H-pyrazole-4-carboxamide], the EC50 was 1 to 10 nM. As for `O=C(NCc1ncn2ccc(Cl)cc12)c1nnc(Cc2cn3cc(C4CC4)ccc3n2)o1` [Example I-51, N-((7-chloroimidazo[1,5-a]pyridin-1-yl)methyl)-5-((6-cyclopropylimidazo[1,2-a]pyridin-2-yl)methyl)-1,3,4-oxadiazole-2-carboxamide], the EC50 is less than 1 nM. On the same count and under the same terms, the figure for `O=C(NCc1ncn2ccc(Cl)c(F)c12)c1nnn(Cc2cn3nc(C4CC4)ccc3n2)n1` [Example I-289, N-((7-chloro-8-fluoroimidazo[1,5-a]pyridin-1-yl)methyl)-2-((6-cyclopropylimidazo[1,2-b]pyridazin-2-yl)methyl)-2H-tetrazole-5-carboxamide] is less than 1 nM; for `O=C(NCc1ncn2ccc(Cl)c(F)c12)c1cn(Cc2cn3cc(C4CC4)cnc3n2)nn1` [Example I-165, N-((7-chloro-8-fluoroimidazo[1,5-a]pyridin-1-yl)methyl)-1-((6-cyclopropylimidazo[1,2-a]pyrimidin-2-yl)methyl)-1H-1,2,3-triazole-4-carboxamide] it is less than 1 nM; for `O=C(NCc1ncn2ccc(Cl)c(F)c12)c1cn(Cc2cn3cc(C4CC4)cc(C(=O)O)c3n2)nn1` [Example I-166b, 2-((4-(((7-chloro-8-fluoroimidazo[1,5-a]pyridin-1-yl)methyl)carbamoyl)-1H-1,2,3-triazol-1-yl)methyl)-6-cyclopropylimidazo[1,2-a]pyridine-8-carboxylic acid] it is less than 1 nM. Same read-out and setting: the figure for `O=C(NCc1ncn2ccc(Cl)c(F)c12)c1cn(Cc2cn3cc(C4CC4)cc(-c4cnoc4)c3n2)nn1` [Example I-225, N-((7-chloro-8-fluoroimidazo[1,5-a]pyridin-1-yl)methyl)-1-((6-cyclopropyl-8-(isoxazol-4-yl)imidazo[1,2-a]pyridin-2-yl)methyl)-1H-1,2,3-triazole-4-carboxamide] is less than 1 nM; for `Cc1ccc2nc(Cn3cc(C(=O)NCc4ncn5ccc(Cl)c(C)c45)cn3)cn2c1` [Example I-35, N-((7-chloro-8-methylimidazo[1,5-a]pyridin-1-yl)methyl)-1-((6-methylimidazo[1,2-a]pyridin-2-yl)methyl)-1H-pyrazole-4-carboxamide] it is 100 to 2000 nM. The same measure, in the same setting: the figure for `O=C(NCc1ncn2ccc(Cl)c(F)c12)c1cn(Cc2cn3cc(C4CC4)cc(-c4nn[nH]n4)c3n2)nn1` [Example I-174, N-((7-chloro-8-fluoroimidazo[1,5-a]pyridin-1-yl)methyl)-1-((6-cyclopropyl-8-(2H-tetrazol-5-yl)imidazo[1,2-a]pyridin-2-yl)methyl)-1H-1,2,3-triazole-4-carboxamide] is less than 1 nM.

Staying with this assay, now noted: comparative compounds (Table II); assay format with 500 pM (500 μM in the source) activated kallikrein; read-out: Primary Dose Response Assay: Average EC50.
For `COCc1nn(Cc2ccc(N3CCCC3)nc2)cc1C(=O)NCc1c(-n2cnnn2)ccc(OC)c1F` [reference compound], the concentration giving a half-maximal response (EC50) is 1 to 10 nM.
